Data taken from patent US20250340552A1, “COMPOUNDS, COMPOSITIONS AND METHODS OF TREATING DISORDERS” (HOTSPOT THERAPEUTICS, INC., priority 2022, published 2025).
Where two headings read alike, the source gives them in different places.

Target: T1, Cbl-B (Homo sapiens, UniProt Q13191)
T1 construct: MSD-Based Assay for Degradation of Cbl-B in THP-1 Cells; endogenous in cells; host or cells: THP-1 (title) / Jurkat (protocol text)
Assay: MSD-based assay for degradation of Cbl-B in THP-1 cells
Type: cell-based
Outline: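 Reported Dmax bins are A >70%, B 50–70%, C 30–50% and D <30%, from an electrochemiluminescence (MSD) sandwich assay of Cbl-B in cell lysates. THP-1 cells were exposed to compounds for 24 hours before lysis.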

[1] = Cbl-B degradation, Jurkat cells seeded (heading: THP-1 cells), 24 hours incubation, MSD readout
[2] = Cbl-B degradation, Jurkat cells seeded (heading: THP-1 cells), 24 hours incubation, MSD readout, read-out: Dmax

T1 sequence (Q13191 whole entry): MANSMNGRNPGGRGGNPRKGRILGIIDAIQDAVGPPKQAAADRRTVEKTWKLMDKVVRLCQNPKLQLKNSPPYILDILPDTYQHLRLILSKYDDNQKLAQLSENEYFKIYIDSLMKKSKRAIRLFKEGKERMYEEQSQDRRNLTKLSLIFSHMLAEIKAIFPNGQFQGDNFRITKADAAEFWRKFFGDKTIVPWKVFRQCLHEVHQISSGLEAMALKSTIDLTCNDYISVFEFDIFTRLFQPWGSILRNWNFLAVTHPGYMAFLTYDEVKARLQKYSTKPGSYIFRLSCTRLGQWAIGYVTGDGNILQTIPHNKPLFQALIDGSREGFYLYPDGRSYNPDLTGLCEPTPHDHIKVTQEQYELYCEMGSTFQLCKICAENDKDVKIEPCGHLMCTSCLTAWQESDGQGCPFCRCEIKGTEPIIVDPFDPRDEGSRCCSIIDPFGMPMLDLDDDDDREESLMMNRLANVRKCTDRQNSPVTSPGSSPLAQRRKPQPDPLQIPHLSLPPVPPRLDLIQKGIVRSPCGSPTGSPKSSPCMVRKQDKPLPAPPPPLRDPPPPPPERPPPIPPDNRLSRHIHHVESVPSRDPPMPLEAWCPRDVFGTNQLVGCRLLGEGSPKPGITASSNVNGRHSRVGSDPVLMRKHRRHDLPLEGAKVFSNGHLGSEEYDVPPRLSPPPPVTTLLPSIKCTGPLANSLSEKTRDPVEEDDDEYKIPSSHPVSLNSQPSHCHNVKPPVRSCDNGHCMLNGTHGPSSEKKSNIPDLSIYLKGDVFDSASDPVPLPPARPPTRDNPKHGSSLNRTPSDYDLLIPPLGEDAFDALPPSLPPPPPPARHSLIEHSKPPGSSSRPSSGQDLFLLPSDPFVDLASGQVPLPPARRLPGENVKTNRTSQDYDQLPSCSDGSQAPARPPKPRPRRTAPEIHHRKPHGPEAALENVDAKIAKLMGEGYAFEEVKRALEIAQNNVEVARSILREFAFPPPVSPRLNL

DC50 [1] [nM]	Dmax [2] [%]	Compound	Dmax (THP-1) [%]
300 to 1000	< 30	CN(C(=O)c1ccc(N2CCN(c3ccc4c(c3)CN([C@H]3CCC(=O)NC3=O)C4=O)CC2)cc1)C1CCN(Cc2cc(C(F)(F)F)c3cn(-c4cccc([C@H](c5nncn5C)C5CCC5)c4)c(=O)n3c2)CC1 [Compound 138]	–
> 10000	< 30	Cn1cnnc1[C@@H](c1cccc(-n2cc3c(C(F)(F)F)cc(COCCCN4CCC(CN5CCN(c6ccc7c(c6)CN([C@H]6CCC(=O)NC6=O)C7=O)CC5)CC4)cn3c2=O)c1)C1CCC1 [Compound 150]	–
30 to 300	50 to 70	CN(CCOC1CCN(Cc2cc(C(F)(F)F)c3cn(-c4cccc([C@H](c5nncn5C)C5CCC5)c4)c(=O)n3c2)CC1)C(=O)c1ccc(N2CCC(c3ccc4c(c3)CN([C@@H]3CCC(=O)NC3=O)C4=O)CC2)cc1 [Compound 151]	–
< 30	> 70	CN(C(=O)c1ccc(CN2CCN(c3ccc4c(c3)CN([C@H]3CCC(=O)NC3=O)C4=O)CC2)cc1)C1CCN(Cc2cc(C(F)(F)F)c3cn(-c4cccc([C@H](c5nncn5C)C5CCC5)c4)c(=O)n3c2)CC1 [Compound 160]	–
< 30	> 70	Cn1cnnc1[C@@H](c1cccc(-n2cc3c(C(F)(F)F)cc(CN4CCC(CCN5CCC(CC6CCN(c7ccc8c(c7)CN([C@H]7CCC(=O)NC7=O)C8=O)CC6)CC5)CC4)cn3c2=O)c1)C1CCC1 [Compound 164]	–
< 30	> 70	CN(CC1CCN(Cc2cc(C(F)(F)F)c3cn(-c4cccc(C5(Cc6nncn6C)COC5)c4)c(=O)n3c2)CC1)C(=O)c1ccc(N2CCN(c3ccc4c(c3)CN([C@H]3CCC(=O)NC3=O)C4=O)CC2)cc1 [Compound 166]	–
30 to 300	30 to 50	CO[C@H]1C[C@@](c2cccc(-n3cc4c(C(F)(F)F)cc(CN5CCC(CN(C)C(=O)c6ccc(N7CCN(c8ccc9c(c8)CN([C@H]8CCC(=O)NC8=O)C9=O)CC7)cc6)CC5)cn4c3=O)c2)(c2nncn2C)C1 [Compound 169]	–
< 30	> 70	Cn1cnnc1[C@@H](c1cccc(-n2cc3c(C(F)(F)F)cc(CN4CCC(CC(=O)N5CCC(CC6CCN(c7ccc8c(c7)CN([C@H]7CCC(=O)NC7=O)C8=O)CC6)CC5)CC4)cn3c2=O)c1)C1CCC1 [Compound 176]	–
< 30	30 to 50	Cn1cnnc1[C@@H](c1cccc(-n2cc3c(C(F)(F)F)cc(CN4CCC(CC(=O)N5CCC(c6ccc(-c7ccc8c(c7)CN([C@H]7CCC(=O)NC7=O)C8=O)cc6)CC5)CC4)cn3c2=O)c1)C1CCC1 [Compound 182]	–
< 30	> 70	CN(CC1CCN(Cc2cc3c(c(C(F)(F)F)c2)CN(c2cccc([C@H](c4nncn4C)C4CCC4)c2)C3=O)CC1)C(=O)c1ccc(N2CCN(c3ccc4c(c3)CN([C@H]3CCC(=O)NC3=O)C4=O)CC2)cc1 [Compound 184]	–
300 to 1000	30 to 50	Cn1cnnc1[C@@H](c1cccc(N2Cc3c(cc(CN4CCC[C@H](OCc5ccc(CC6CCN(c7ccc8c(c7)CN([C@H]7CCC(=O)NC7=O)C8=O)CC6)cc5)C4)cc3C(F)(F)F)C2=O)c1)C1CCC1 [Compound 190]	–
< 30	> 70	Cn1cnnc1CC1(c2cccc(-n3cc4c(C(F)(F)F)cc(CN5CCN(CCc6ccc(N7CCN(c8ccc9c(c8)CN([C@@H]8CCC(=O)NC8=O)C9=O)CC7)cc6)CC5)cn4c3=O)c2)COC1 [Compound 203]	–
< 30	> 70	Cn1cnnc1CC1(c2cccc(-n3cc4c(C(F)(F)F)cc(CN5CCC(COCc6ccc(CN7CCN(c8ccc9c(c8)CN([C@H]8CCC(=O)NC8=O)C9=O)CC7)cc6)CC5)cn4c3=O)c2)COC1 [Compound 216]	–
300 to 1000	30 to 50	CO[C@H]1C[C@](c2cccc(-n3cc4c(C(F)(F)F)cc(CN5CCC(OCCOCc6ccc(CN7CCN(c8ccc9c(c8)CN([C@@H]8CCC(=O)NC8=O)C9=O)CC7)cc6)CC5)cn4c3=O)c2)(c2nncn2C)C1 [Compound 221]	–
< 30	> 70	CO[C@H]1C[C@](c2cccc(-n3cc4c(C(F)(F)F)cc(CN5CCC(OCCOCc6ccc(CN7CCN(c8ccc9c(c8)CN([C@H]8CCC(=O)NC8=O)C9=O)CC7)cc6)CC5)cn4c3=O)c2)(c2nncn2C)C1 [Compound 222]	–
< 30	50 to 70	CO[C@H]1C[C@](c2cccc(-n3cc4c(C(F)(F)F)cc(CN5CCC(COCc6ccc(CN7CCN(c8ccc9c(c8)CN([C@H]8CCC(=O)NC8=O)C9=O)CC7)cc6)CC5)cn4c3=O)c2)(c2nncn2C)C1 [Compound 224]	–
30 to 300	50 to 70	Cn1cnnc1[C@@H](c1cccc(-n2cc3c(C(F)(F)F)cc(CN4CCN(CCc5ccc(C6CCN(c7ccc8c(c7)CN([C@@H]7CCC(=O)NC7=O)C8=O)CC6)cc5)CC4)cn3c2=O)c1)C1CCC1 [Compound 227]	–
< 30	–	Cn1cnnc1CC1(c2cccc(-n3cc4c(C(F)(F)F)cc(CN5CCN(CCc6ccc(C7CCN(c8ccc9c(c8)CN([C@H]8CCC(=O)NC8=O)C9=O)CC7)cc6)CC5)cn4c3=O)c2)COC1 [Compound 230]	–

Continued, compound first:

Compound	DC50 [1] [nM]	Dmax [2] [%]	Dmax (THP-1) [%]
CN(C(=O)c1ccc(N2CCN(c3ccc4c(c3)CN([C@@H]3CCC(=O)NC3=O)C4=O)CC2)cc1)C1CCN(Cc2cc(C(F)(F)F)c3cn(-c4cccc([C@H](c5nncn5C)C5CCC5)c4)c(=O)n3c2)CC1 [Compound 137]	30 to 300	30 to 50	–
CN(CCOC1CCN(Cc2cc(C(F)(F)F)c3cn(-c4cccc([C@H](c5nncn5C)C5CCC5)c4)c(=O)n3c2)CC1)C(=O)c1ccc(N2CCC(c3ccc4c(c3)CN([C@H]3CCC(=O)NC3=O)C4=O)CC2)cc1 [Compound 152]	< 30	> 70	–
CN(C(=O)c1ccc(CN2CCN(c3ccc4c(c3)CN([C@@H]3CCC(=O)NC3=O)C4=O)CC2)cc1)C1CCN(Cc2cc(C(F)(F)F)c3cn(-c4cccc([C@H](c5nncn5C)C5CCC5)c4)c(=O)n3c2)CC1 [Compound 159]	> 10000	–	< 30
Cn1cnnc1[C@@H](c1cccc(-n2cc3c(C(F)(F)F)cc(CN4CCC(CCN5CCC(CC6CCN(c7ccc8c(c7)CN([C@@H]7CCC(=O)NC7=O)C8=O)CC6)CC5)CC4)cn3c2=O)c1)C1CCC1 [Compound 163]	> 10000	< 30	–
CN(CC1CCN(Cc2cc(C(F)(F)F)c3cn(-c4cccc(C5(Cc6nncn6C)COC5)c4)c(=O)n3c2)CC1)C(=O)c1ccc(N2CCN(c3ccc4c(c3)CN([C@@H]3CCC(=O)NC3=O)C4=O)CC2)cc1 [Compound 165]	1000 to 10000	30 to 50	–
CO[C@H]1C[C@@](c2cccc(-n3cc4c(C(F)(F)F)cc(CN5CCC(CN(C)C(=O)c6ccc(N7CCN(c8ccc9c(c8)CN([C@@H]8CCC(=O)NC8=O)C9=O)CC7)cc6)CC5)cn4c3=O)c2)(c2nncn2C)C1 [Compound 167]	1000 to 10000	< 30	–
CO[C@H]1C[C@](c2cccc(-n3cc4c(C(F)(F)F)cc(CN5CCC(CN(C)C(=O)c6ccc(N7CCN(c8ccc9c(c8)CN([C@@H]8CCC(=O)NC8=O)C9=O)CC7)cc6)CC5)cn4c3=O)c2)(c2nncn2C)C1 [Compound 168]	> 10000	< 30	–
Cn1cnnc1[C@@H](c1cccc(-n2cc3c(C(F)(F)F)cc(CN4CCC(CC(=O)N5CCC(CC6CCN(c7ccc8c(c7)CN([C@@H]7CCC(=O)NC7=O)C8=O)CC6)CC5)CC4)cn3c2=O)c1)C1CCC1 [Compound 175]	> 10000	–	< 30
Cn1cnnc1[C@@H](c1cccc(-n2cc3c(C(F)(F)F)cc(CN4CCC(CC(=O)N5CCC(Cc6ccc(-c7ccc8c(c7)CN([C@@H]7CCC(=O)NC7=O)C8=O)cc6)CC5)CC4)cn3c2=O)c1)C1CCC1 [Compound 179]	300 to 1000	–	30 to 50
Cn1cnnc1[C@@H](c1cccc(-n2cc3c(C(F)(F)F)cc(CN4CCC(CC(=O)N5CCC(Cc6ccc(-c7ccc8c(c7)CN([C@H]7CCC(=O)NC7=O)C8=O)cc6)CC5)CC4)cn3c2=O)c1)C1CCC1 [Compound 180]	< 30	–	> 70
Cn1cnnc1[C@@H](c1cccc(-n2cc3c(C(F)(F)F)cc(CN4CCC(CC(=O)N5CCC(c6ccc(-c7ccc8c(c7)CN([C@@H]7CCC(=O)NC7=O)C8=O)cc6)CC5)CC4)cn3c2=O)c1)C1CCC1 [Compound 181]	300 to 1000	–	30 to 50
CN(CC1CCN(Cc2cc3c(c(C(F)(F)F)c2)CN(c2cccc([C@H](c4nncn4C)C4CCC4)c2)C3=O)CC1)C(=O)c1ccc(N2CCN(c3ccc4c(c3)CN([C@@H]3CCC(=O)NC3=O)C4=O)CC2)cc1 [Compound 183]	30 to 300	50 to 70	–
Cn1cnnc1CC1(c2cccc(-n3cc4c(C(F)(F)F)cc(CN5CCC(COCc6ccc(CN7CCN(c8ccc9c(c8)CN([C@@H]8CCC(=O)NC8=O)C9=O)CC7)cc6)CC5)cn4c3=O)c2)COC1 [Compound 215]	1000 to 10000	< 30	–
CO[C@H]1C[C@](c2cccc(-n3cc4c(C(F)(F)F)cc(CN5CCC(COCc6ccc(CN7CCN(c8ccc9c(c8)CN([C@@H]8CCC(=O)NC8=O)C9=O)CC7)cc6)CC5)cn4c3=O)c2)(c2nncn2C)C1 [Compound 223]	30 to 300	30 to 50	–
Cn1cnnc1[C@@H](c1cccc(-n2cc3c(C(F)(F)F)cc(CN4CCC[C@H](COCc5ccc(CN6CCN(c7ccc8c(c7)CN([C@@H]7CCC(=O)NC7=O)C8=O)CC6)cc5)C4)cn3c2=O)c1)C1CCC1 [Compound 235]	–	–	30 to 50
Cn1cnnc1[C@@H](c1cccc(-n2cc3c(C(F)(F)F)cc(CN4CCC(OC(=O)N5CCC(CN6CCN(c7ccc8c(c7)CN([C@@H]7CCC(=O)NC7=O)C8=O)CC6)CC5)CC4)cn3c2=O)c1)C1CCC1 [Compound 237]	30 to 300	–	50 to 70
Cn1cnnc1[C@@H](c1cccc(-n2cc3c(C(F)(F)F)cc(CN4CCC(OC(=O)N5CCC(CN6CCN(c7ccc8c(c7)CN([C@H]7CCC(=O)NC7=O)C8=O)CC6)CC5)CC4)cn3c2=O)c1)C1CCC1 [Compound 238]	< 30	–	> 70
